Results: patent publication US8492559B2, “Substituted indole compounds” (Gruenenthal GmbH, priority 2009, dated 2013)

Target: T1, B1R receptor of the rat (rB1R) (Rattus norvegicus, UniProt P97583)
T1 construct: expressed in transfected cells; host or cells: CHO K1 cells
T1 sequence (P97583 1-337): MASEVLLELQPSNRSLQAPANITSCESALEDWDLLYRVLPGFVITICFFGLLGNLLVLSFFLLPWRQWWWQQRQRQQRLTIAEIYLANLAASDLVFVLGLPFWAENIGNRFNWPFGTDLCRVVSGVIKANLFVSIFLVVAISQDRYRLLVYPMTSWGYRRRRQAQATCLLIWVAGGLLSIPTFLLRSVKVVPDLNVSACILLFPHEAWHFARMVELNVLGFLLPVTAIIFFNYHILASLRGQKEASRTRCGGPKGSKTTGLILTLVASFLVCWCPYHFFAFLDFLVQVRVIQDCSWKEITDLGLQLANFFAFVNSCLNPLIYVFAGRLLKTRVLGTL
Test: Functional investigation on the bradykinin 1 receptor (B1R), FLIPR Ca2+ assay, rB1R cells
Format: cell-based
Settings: CHO K1 cells with rat B1R, agonist Des-Arg9 bradykinin, % of maximum achievable inhibition; for inhibition at 10 µM: CHO-K1, 10 μM test substance, read-out: B1R antagonism, rat [10 μM] % inhibition
Experimental: The indication in % activation is based on the Ca^2+ signal after addition of Lys-Des-[…] bradykinin (0.5 nM) or Des-[…] bradykinin (100 nM). Antagonists lead to a suppression of the Ca^2+ influx following administration of the agonist. The % inhibition in comparison with the maximum achievable inhibition is indicated. […] According to this assay, the Ca^2+ inflow through the channel is quantified with the aid of a Ca^2+-sensitive dye (Fluo-4 type, Molecular Probes Europe BV, Leiden, Netherlands) in a fluorescent imaging plate reader (FLIPR, Molecular Devices, Sunnyvale, USA). […] For functional investigations these cells are plated-out onto black 96-well plates with a clear base (BD Biosciences, Heidelberg, Germany or Greiner, Frickenhausen, Germany) in a density of 20,000-35,000 cells/well. Overnight the cells are incubated at 37° C. and 5% CO2 in culture medium (hB1R cells: Ham's Nutrient Mixture F12, Gibco Invitrogen GmbH, Karlsruhe, Germany or DMEM, Sigma-Aldrich, Taufkirchen, Germany; rB1R cells: D-MEM/F12, Gibco Invitrogen, Karlsruhe, Germany) with 10 vol. % FBS (foetal bovine serum, Gibco Invitrogen GmbH, Karlsruhe, Germany or PAN Biotech GmbH, Aidenbach, Germany). On the following day the cells are loaded with 2.13 μM Fluo-4 (Molecular Probes Europe BV, Leiden, Netherlands) in HBSS buffer (Hank's buffered saline solution, Gibco Invitrogen GmbH, Karlsruhe, Germany) with 2.5 mM probenecid (Sigma-Aldrich, Taufkirchen, Germany) and 10 mM HEPES (Sigma-Aldrich, Taufkirchen, Germany) for 60 min at 37° C. […] Sigma-Aldrich, Taufkirchen, Germany), 5.6 mM glucose and 0.05% gelatine (Merck KGaA, Darmstadt, Germany) is added. After a further incubation of 20 minutes at room temperature, the plates are inserted into the FLIPR for Ca^2+ measurement. Alternatively they are washed with buffer A (15 mM HEPES, 80 mM NaCl, 5 mM KCl, 1.2 mM CaCl2, 0.7 mM MgSO4, 2 g/l glucose, 2.5 mM probenecid) and loaded with buffer A with added 2.5 μM Fluo-4 and 0.025% Pluronic F127 (Sigma-Aldrich, Taufkirchen, Germany). The cells are then washed twice with buffer A and incubated for 30 minutes with buffer A, which additionally contains 0.05% BSA and 0.05% gelatine, at room temperature and then used for Ca^2+ measurement in the FLIPR. The Ca^2+-dependent fluorescence is measured here before and after addition of substances (λex=488 nm, λem=540 nm). The quantification is performed by measuring the highest fluorescence intensity (FC, fluorescence counts) over time. The FLIPR protocol comprises two additions of substance. […] Lys-Des-[…] bradykinin>=50 nM; rB1R: […] Antagonists lead to a suppression of the Ca^2+ inflow. The % inhibition in comparison with the maximum achievable inhibition is calculated. The substances are added in varying concentrations in order to determine the IC50 value. Double or triple determinations (n=2 or n=3) are performed and these are repeated in at least one further independent experiment (N>=2).

## COc1cc(C)c(S(=O)(=O)Nc2ccc3ccn(CC(=O)N4CCC(CCN5CCCC5)CC4)c3c2)c(C)c1 [G_CC-120, 4-Methoxy-2,6-dimethyl-N-[1-[2-oxo-2-[4-(2-pyrrolidin-1-yl-ethyl)-piperidin-1-yl]-ethyl]-1H-indol-6-yl]-benzenesulfonic acid amide]
  inhibition at 10 µM: 72%

## COc1cc(C)c(S(=O)(=O)Nc2cccc3ccn(CC(=O)N4CCC5(CC4)CCN(c4ccc(F)cc4)C5=O)c23)c(C)c1 [G_CC-12, N-[1-[2-[3-(4-Fluorophenyl)-4-oxo-3,8-diazaspiro[4.5]decan-8-yl]-2-oxo-ethyl]-1H-indol-7-yl]-4-methoxy-2,6-dimethyl-benzenesulfonic acid amide]
  inhibition at 10 µM: 58%

## COc1cc(C)c(S(=O)(=O)Nc2cccc3ccn(CCC(=O)N4CCC(O)(c5ccccn5)CC4)c23)c(C)c1 [G_CC-45, N-[1-[3-(4-Hydroxy-4-pyridin-2-yl-piperidin-1-yl)-3-oxo-propyl]-1H-indol-7-yl]-4-methoxy-2,6-dimethyl-benzenesulfonic acid amide]
  inhibition at 10 µM: 59%

## COc1cc(C)c(S(=O)(=O)Nc2cccc3ccn(CC(=O)N(C)CCC4CCC(c5ccccc5)(N(C)C)CC4)c23)c(C)c1 (centres unmarked) [G_CC-77, N-[2-(4-Dimethylamino-4-phenyl-cyclohexyl)-ethyl]-2-[7-[[(4-methoxy-2,6-dimethyl-phenyl)sulfonyl]amino]-1H-indol-1-yl]-N-methyl-acetamide]
  inhibition at 10 µM: 104%

## COc1cc(C)c(S(=O)(=O)Nc2ccc3ccn(CC(=O)N4CCN(c5ncccn5)CC4)c3c2)c(C)c1 [G_CC-3, 4-Methoxy-2,6-dimethyl-N-[1-[2-oxo-2-(4-pyrimidin-2-yl-piperazin-1-yl)-ethyl]-1H-indol-6-yl]-benzenesulfonic acid amide]
  inhibition at 10 µM: 82%

## COc1cc(C)c(S(=O)(=O)Nc2cccc3ccn(CC(=O)N4CCN(CC5CCN(C)CC5)CC4)c23)c(C)c1 [G_CC-7, 4-Methoxy-2,6-dimethyl-N-[1-[2-[4-[(1-methyl-piperdin-4-yl)-methyl]-piperazin-1-yl]-2-oxo-ethyl]-1H-indol-7-yl]-benzenesulfonic acid amide]
10 μM test substance
  B1R antagonism, rat [10 μM] % inhibition: 100%

## O=C(Cn1ccc2cccc(NS(=O)(=O)c3ccccc3C(F)(F)F)c21)N1CCC2(CC1)CCN(c1ccncc1)CC2 [G_CC-53, N-[1-[2-Oxo-2-(3-pyridin-4-yl-3,9-diazaspiro[5.5]undecan-9-yl)-ethyl]-1H-indol-7-yl]-2-(trifluoromethyl)-benzenesulfonic acid amide]
  inhibition at 10 µM: 101%

## COc1cc(C)c(S(=O)(=O)Nc2ccc3ccn(CCC(=O)N4CCC5(CC4)CCN(c4ccncc4)CC5)c3c2)c(C)c1 [G_CC-35, 4-Methoxy-2,6-dimethyl-N-[1-[3-oxo-3-(3-pyridin-4-yl-3,9-diazaspiro[5.5]undecan-9-yl)-propyl]-1H-indol-6-yl]-benzenesulfonic acid amide]
  inhibition at 10 µM: 72%

## CN(CCCN1CCN(c2ccncc2)CC1)C(=O)CCn1ccc2ccc(N3Cc4cccc(Cl)c4C3=O)cc21 [G_CC-119, 3-[6-(4-Chloro-3-oxo-1,2-dihydro-isoindol-2-yl)-1H-indol-1-yl]-N-methyl-N-[3-(4-pyridin-4-yl-piperazin-1-yl)-propyl]-propionamide]
  inhibition at 10 µM: 72%

## COc1cc(C)c(S(=O)(=O)Nc2cccc3ccn(CC(=O)N(C)CCCN4CCC(c5ccccc5)(N(C)C)CC4)c23)c(C)c1 [G_CC-14, N-[3-(4-Dimethylamino-4-phenyl-piperidin-1-yl)-propyl]-2-[7-[[(4-methoxy-2,6-dimethyl-phenyl)sulfonyl]amino]-1H-indol-1-yl]-N-methyl-acetamide]
  inhibition at 10 µM: 86%

## Cc1cc(S(=O)(=O)Nc2ccc3ccn(CCC(=O)NCCC4CCN(c5ccncc5)CC4)c3c2)c(C)cc1Cl [G_CC-71, 3-[6-[[(4-Chloro-2,5-dimethyl-phenyl)sulfonyl]amino]-1H-indol-1-yl]-N-[2-(1-pyridin-4-yl-piperidin-4-yl)-ethyl]-propionamide]
  inhibition at 10 µM: 54%

## CN(CCCN1CCC(c2ccccc2)(N(C)C)CC1)C(=O)Cn1ccc2cccc(NS(=O)(=O)c3cccc4ccccc34)c21 [G_CC-16, N-[3-(4-Dimethylamino-4-phenyl-piperidin-1-yl)-propyl]-N-methyl-2-[7-[(naphthalen-1-ylsulfonyl)amino]-1H-indol-1-yl]-acetamide]
  inhibition at 10 µM: 67%

## COc1cc(C)c(S(=O)(=O)Nc2cccc3ccn(CC(=O)NC4CCC(c5ccccc5)(N5CCC5)CC4)c23)c(C)c1 (centres unmarked) [G_CC-17, N-[4-(Azetidin-1-yl)-4-phenyl-cyclohexyl]-2-[7-[[(4-methoxy-2,6-dimethyl-phenyl)sulfonyl]amino]-1H-indol-1-yl]-acetamide]
  inhibition at 10 µM: 52%

## COc1cc(C)c(S(=O)(=O)Nc2cccc3ccn(CCC(=O)NC4CCC(c5ccccc5)(N5CCC5)CC4)c23)c(C)c1 (centres unmarked) [G_CC-50, N-[4-(Azetidin-1-yl)-4-phenyl-cyclohexyl]-3-[7-[[(4-methoxy-2,6-dimethyl-phenyl)sulfonyl]amino]-1H-indol-1-yl]-propionamide]
  inhibition at 10 µM: 62%

## CN(CCCN1CCC(c2cccs2)(N(C)C)CC1)C(=O)Cn1ccc2cccc(NS(=O)(=O)c3cccc4ccccc34)c21 [G_CC-25, N-[3-(4-Dimethylamino-4-thiophen-2-yl-piperidin-1-yl)-propyl]-N-methyl-2-[7-[(naphthalen-1-ylsulfonyl)amino]-1H-indol-1-yl]-acetamide]
  inhibition at 10 µM: 58%

## COc1cc(C)c(S(=O)(=O)Nc2ccc3ccn(CC(=O)N4CCC(CNC(=O)c5ccncc5)(N5CCN(C)CC5)CC4)c3c2)c(C)c1 [G_CC-108, N-[[1-[2-[6-[[(4-Methoxy-2,6-dimethyl-phenyl)sulfonyl]amino]-1H-indol-1-yl]-acetyl]-4-(4-methyl-piperazin-1-yl)-piperidin-4-yl]-methyl]-pyridine-4-carboxylic acid amide]
  inhibition at 10 µM: 84%

## COc1cc(C)c(S(=O)(=O)Nc2ccc3ccn(CC(=O)N(C)CCCN4CCC(c5ccccc5)(N(C)C)CC4)c3c2)c(C)c1 [G_CC-11, N-[3-(4-Dimethylamino-4-phenyl-piperidin-1-yl)-propyl]-2-[6-[[(4-methoxy-2,6-dimethyl-phenyl)sulfonyl]amino]-1H-indol-1-yl]-N-methyl-acetamide]
  inhibition at 10 µM: 87%

## Cc1cc(S(=O)(=O)Nc2cccc3ccn(CCC(=O)NCCC4CCN(c5ccncc5)CC4)c23)c(C)cc1Cl [G_CC-70, 3-[7-[[(4-Chloro-2,5-dimethyl-phenyl)sulfonyl]amino]-1H-indol-1-yl]-N-[2-(1-pyridin-4-yl-piperidin-4-yl)-ethyl]-propionamide]
  inhibition at 10 µM: 100%

## O=C(Cn1ccc2cccc(NS(=O)(=O)c3cccc4ccccc34)c21)N1CCC2(CC1)CCN(c1ccncc1)CC2 [G_CC-38, N-[1-[2-Oxo-2-(3-pyridin-4-yl-3,9-diazaspiro[5.5]undecan-9-yl)-ethyl]-1H-indol-7-yl]-naphthalene-1-sulfonic acid amide]
  inhibition at 10 µM: 96%

## COc1cc(C)c(S(=O)(=O)Nc2cccc3ccn(CCC(=O)N4CCC(c5ccccc5)(N(C)C)CC4)c23)c(C)c1 [G_CC-48, N-[1-[3-(4-Dimethylamino-4-phenyl-piperidin-1-yl)-3-oxo-propyl]-1H-indol-7-yl]-4-methoxy-2,6-dimethyl-benzenesulfonic acid amide]
  inhibition at 10 µM: 59%
